# Measurements taken from patent publication US9216956B2, “Deuterium-enriched 4-hydroxy-5-methoxy-N,1-dimethyl-2-oxo-N-[(4-trifluoro-methyl)phenyl]-1,2-dihydroquinoline-3-carboxamide” (ACTIVE BIOTECH AB, priority 2011, dated 2015).
# “And” between values parts separate entries of the source, which are not always exact repeats. Equal entries are not always repeated.
# How the values were obtained:
# Water solubility = type: physicochemical
# Source text: The water solubility of ABR-215050 and of its metabolites also was investigated. It is a well-known fact that metabolism in general aims to transform compounds to more water soluble entities (10), which mostly decreases toxicity but also facilitates renal elimination. […]
# [1] = test system: AhR (Aryl hydrocarbon Receptor) mediated induction of CYP1A1; assay: TV-cell assay: luciferase gene reporter assay for AhR mediated induction of CYP1A1 in TV101L (HepG2) cells; type: cell-based, human; conditions: TV-cell assay
# Method: ABR-215050 was tested with respect to its CYP1A inducing capability in vitro in a TV-cell assay. This assay is a luciferase gene reporter assay developed for the measurement of AhR (Aryl hydrocarbon Receptor) mediated induction of CYP1A. Human CYP1A promoters and 5′-flanking sequences were cloned into firefly luciferase expression vectors and stably integrated into the human hepatoma cell line, HepG2 (9). The isolated cell line was renamed TV101L.
# The mechanism for transcription of CYP1A1 involves the binding of the inducer to the Ah receptor followed by a translocation of the ligand-Ah-receptor complex to the nucleus, where it binds to specific enhancer sequences in the 5′-flanking region of the CYP1A1 gene. These sequences are referred to as xenobiotic responsive elements (XREs).
# A luciferase gene reporter assay was used for the measurement of AhR mediated induction of CYP1A1. Human CYP1A1 promoters and 5′-flanking sequences were cloned into firefly luciferase expression vectors and stably integrated into the human hepatoma cell line, HepG2 (8). The isolated cell line was renamed TV101L.
# The cells were seeded in 96 well tissue culture plates 24-48 hours prior to treatment with the test compound. After the addition of ABR-215050 at a concentration of 1, 10 and 100 μM, the cells were further incubated for 12-24 hours. The cells were harvested by the addition of lysis buffer followed by a freezing/thawing cycle. An enzymatic assay was used for the determination of luciferase activity.
# The same assay as used for ABR-215050 was used. The concentrations of ABR-215691 that were used and the results obtained, expressed as fold induction of luciferase expression, are shown in Table 4 and in FIG. 1.
# CYP1A1 = assay: In vivo CYP1A1 induction in rat, EROD activity of liver microsomes
# Method: (§1) The in vivo induction of CYP1A1 and CYP1A2 after repeated administration of ABR-215050 and of ABR-215050-dx, respectively, was studied in rat.
# (§2) Test preparations B and C and blank preparation A were made as follows: For preparation B, ABR-215050 was dissolved in NaOH and sterile water at a concentration of 0.5 mg/mL. The pH of the solution was adjusted to pH 7.4-8.5. Preparation C was made in the same way, using ABR-215050-dx. Preparation A was a blank containing only water. The preparations were stored in a refrigerator for a maximum of one week before use.
# (§3) On arrival at the laboratory, the test animals were 9 weeks old Sprague Dawley male rats having a body weight of 250 g. They were divided into 3 groups and were allowed to acclimatize for at least 7 days before the test. During the whole acclimatization and test period, the animals received water and feed (Labfor R70, form Kimstad, Sweden) ad libitum, and were kept under a 12 hours dark/12 hours light cycle, at a temperature of 20±2° C. and a relative humidity of 50±15%.
# (§4) Before administration of any test preparation, the body weight of each animal was measured and the individual dose to be administered to an animal was determined based on the weight of the animal. Administration was performed perorally during 4 days, cf.
# (§5) At 24 h after administration of the final dose, the animals were weighed and from each animal a final blood sample was withdrawn for a pharmacokinetic analysis. The animals then were euthanized and from each one the liver was withdrawn, weighed, and immediately frozen in crushed dry ice. The livers then were stored at −70° C. until preparation of microsomes.
# (§6) Microsomes were prepared according to the method M-0287 “Preparation of subcellular fractions from animal tissues” and then kept at −70° C. until analysis.
# (§7) The total protein concentration of the microsomal fraction was determined according to the method M-0289 “Determination of Protein according to Hartree”.
# [2] = In vivo pharmacokinetics in rat: plasma levels of parents and amide-N demethyl metabolite after 1:1 mixture; conditions: for Plasma level: peroral 2.5 mg/kg of each compound (1:1 mixture)
# Source text: Therefore, the pharmacokinetic characteristics of the amide-N methyl deuterated ABR-215050 (herein below referred to as ABR-215050-dx), wherein the amide-N methyl moiety was tri-deuterated, compared to the non-deuterated parent compound were studied in rat. […] In other words: relative to ABR-215050, the in vivo formation of ABR-215691 was reduced to only 25% when ABR-215050-dx was used.
# A deuterated (also referred to as deuterium-enriched) ABR-215050 was synthesized, wherein the amide-N methyl moiety was trideuterated (ABR-215050-dx). This deuterated compound was diluted with non-deuterated ABR-215050 to a molar ratio of 1:1. The 1:1 equivalent molar mixture was administrated to rats in an in vivo experiment. Because of additional 13-carbon labeling in the quinoline scaffold, the formed amide-N demethyl metabolites could be measured selectively by means of HPLC-MS (High performance Liquid Chromatography with Mass Spectrometric detection). In Table 5, the plasma levels of ABR-215050-dx and ABR-215050 (in nM) measured in 4 different rats are shown, as well as the ratio of these two compounds.
# LNCaP tumor = assay: Anti-tumor effect on subcutaneous LNCaP-19 tumor in Nude BALB/c mice; type: in vivo, mouse; conditions: 10 mg/kg/day via drinking water from day 7
# Method: The anti-tumor effect of deuterated ABR-215050 was studied in mouse.
# The castration resistant subline LNCaP-19 was previously established from LNCaP cells (12). Cells were maintained as previously described (13). The LNCaP-19 cells were between passage 10 and 23 when used in the experiments. Passage 1 is defined as the first passage in our laboratory. The cells were tested and found free from mycoplasma.
# Male athymic Nude BALB/c mice (age 8 weeks) were purchased from Taconic (Lille Skensved, Denmark). For subcutaneous implantation, one million tumor cells suspended in 200 μl Matrigel (BD Bioscience, Bedford, Mass.) were inoculated on the flank of the mice. The tumor size was measured by a caliper once a week throughout the experiment and the tumor take was 75% in the untreated control group (n=12). In the tumor growth experiment, ABR-215050-dx (10 mg/kg/day) was administered via drinking water from day 7. To assure appropriate dose was given with no significant fluctuations, water consumption was monitored for each animal cage during the entire experiment. […] Animals were sacrificed when the average tumor size for the control group reached a volume of 900±100 mm^3 or when the tumor volume for an individual animal reached 1200 mm^3 The results are illustrated in FIG. 7.
# CYP1A2 = assay: In vivo CYP1A2 induction in rat, MROD activity of liver microsomes; conditions: rat, in vivo
# Method: as §1, §2, §3, §4, §5, §6, §7
smiles,measurement,setting,value
COc1cccc2[nH]c(=O)c(C(=O)N(C)c3ccc(C(F)(F)F)cc3)c(O)c12 [ABR-219694],water solubility (in words),Water solubility,highly water soluble
same,CYP1A induction (in words),[1],not to induce CYP1A
CN(C(=O)c1c(O)c2c(O)cccc2n(C)c1=O)c1ccc(C(F)(F)F)cc1 [ABR-222097],water solubility (in words),Water solubility,highly water soluble
same,CYP1A induction (in words),[1],not to induce CYP1A
"[2H]C([2H])([2H])N(C(=O)c1c(O)c2c(OC)cccc2n(C)c1=O)c1ccc(C(F)(F)F)cc1 [ABR-215050-dx, 4-Hydroxy-5-methoxy-N-deuteriomethyl-1-methyl-2-oxo-N-[(4-trifluoromethyl)phenyl]-1,2-dihydroquinoline-3-carboxamide]",reduction of the fold induction of CYP1A1 versus ABR-215050,CYP1A1; (42-11.5)/42×100%,73%
same,"CYP1A1 activity (EROD), Mean","CYP1A1; group mean, 1 mg/kg perorally days 1-4",534 pmol/mg prot/min
same,mean fold induction of CYP1A1,"CYP1A1; group mean, versus water group",11.5
same,CYP1A1 activity (EROD),"CYP1A1; individual rat, 1 mg/kg perorally days 1-4, liver microsomes 24 h after final dose, 1 mg/kg",556 pmol/mg prot/min and 511 pmol/mg prot/min
same,CYP1A1 Fold induction,"CYP1A1; individual rat, versus water group",12 and 11
same,"Ratio of metabolite plasma levels, Mean",[2]; mean of rats 1-4,0.26
same,"Reduction of amide-N demethylation, Mean",[2]; mean of rats 1-4,74.1%
same,"Plasma levels of ABR-215691 from the administered compound, Mean","[2]; mean of rats 1-4 (1-4 h), peroral 2.5 mg/kg",0.0748 µM
same,formation of demethylated metabolite compared to non-deuterium labeled ABR-215050 (in words),[2]; rat,diminished by as much as a factor of four
same,in vivo formation of ABR-215691 relative to ABR-215050,[2]; rat,25%
same,Ratio ABR-215050-dx/ABR-215050 (plasma levels),"[2]; rat No 1, 1 h",0.97
same,Ratio of metabolite plasma levels (ABR-215691 from ABR-215050-dx / from ABR-215050),"[2]; rat No 1, 1 h",0.24
same,Reduction of amide-N demethylation,"[2]; rat No 1, 1 h",75.8%
same,Plasma levels of ABR-215691 from the administered compound,"[2]; rat No 1, 1 h, peroral 2.5 mg/kg",0.064 µM
same,Plasma level,"[2]; rat No 1, 1 h",13.394 µM
same,Ratio ABR-215050-dx/ABR-215050 (plasma levels),"[2]; rat No 2, 2 h",0.99
same,Ratio of metabolite plasma levels (ABR-215691 from ABR-215050-dx / from ABR-215050),"[2]; rat No 2, 2 h",0.30
same,Reduction of amide-N demethylation,"[2]; rat No 2, 2 h",70.5%
same,Plasma levels of ABR-215691 from the administered compound,"[2]; rat No 2, 2 h, peroral 2.5 mg/kg",0.0939 µM
same,Plasma level,"[2]; rat No 2, 2 h",13.665 µM
same,Ratio ABR-215050-dx/ABR-215050 (plasma levels),"[2]; rat No 3, 3 h",0.99
same,Ratio of metabolite plasma levels (ABR-215691 from ABR-215050-dx / from ABR-215050),"[2]; rat No 3, 3 h",0.24
same,Reduction of amide-N demethylation,"[2]; rat No 3, 3 h",75.7%
same,Plasma levels of ABR-215691 from the administered compound,"[2]; rat No 3, 3 h, peroral 2.5 mg/kg",0.0466 µM
same,Plasma level,"[2]; rat No 3, 3 h",7.322 µM
same,Ratio ABR-215050-dx/ABR-215050 (plasma levels),"[2]; rat No 4, 4 h",1.00
same,Ratio of metabolite plasma levels (ABR-215691 from ABR-215050-dx / from ABR-215050),"[2]; rat No 4, 4 h",0.25
same,Reduction of amide-N demethylation,"[2]; rat No 4, 4 h",74.6%
same,Plasma levels of ABR-215691 from the administered compound,"[2]; rat No 4, 4 h, peroral 2.5 mg/kg",0.0946 µM
same,Plasma level,"[2]; rat No 4, 4 h",17.824 µM
same,anti-tumor effect (in words),LNCaP tumor,retains a high therapeutic activity
same,mean fold induction of CYP1A2,CYP1A2,5.5
same,reduction of the fold induction of CYP1A2 versus ABR-215050,CYP1A2,68%
same,"CYP1A2 activity (MROD), Mean",CYP1A2; 1 mg/kg,111 pmol/mg prot/min
